Laboratory results taken from ChEMBL document CHEMBL4411340, “Tuning Nuclear Receptor Selectivity of Wy14,643 towards Selective Retinoid X Receptor Modulation” (J Med Chem, 2019).
≈ marks a conversion by molar mass, not a printed value.

Assays:
[1] = Aqueous solubility of the compound in distilled water after 24 hrs by HPLC analysis; assay type: physicochemical; details: for solubility: buffer, 24 h; for solubility at 24 h: distilled water
[2] = Metabolic stability in Sprague-Dawley rat liver microsomes assessed as remaining parent compound level at 10 uM preincubated for 5 mins with NADPH generating system followed by liver microsomes addition and measured after 60 mins by HPLC analysis; assay type: ADME, Microsome; details: read-out: Stability
[3] = Drug uptake in C57BL6/JRj mouse plasma at 10 mg/kg, po administered as single dose and measured after 2 hrs by LS-MS analysis; assay type: ADME, organism-based; details: in vivo
[4] = Drug uptake in C57BL6/JRj mouse liver at 10 mg/kg, po administered as single dose and measured after 2 hrs by LS-MS analysis; assay type: ADME, organism-based; details: in vivo
[5] = Half life in C57BL6/JRj mouse at 10 mg/kg, po administered as single dose and measured after 2 hrs by LS-MS analysis; assay type: ADME, organism-based; details: in vivo
[6] = Drug uptake in C57BL6/JRj mouse brain at 10 mg/kg, po administered as single dose and measured after 2 hrs by LS-MS analysis; assay type: ADME, organism-based; details: read-out: Drug uptake
[7] = Ratio of drug uptake in C57BL6/JRj mouse brain to plasma at 10 mg/kg, po administered as single dose and measured after 2 hrs by LS-MS analysis; assay type: ADME, organism-based
[8] = Log D, lipophilicity of the compound by HPLC analysis; assay type: physicochemical

| SMILES | solubility [1] | remaining at 1 h, 10 µM [2] [%] | solubility at 24 h [1] [µg/mL] | logD [8] | further results |
| --- | --- | --- | --- | --- | --- |
| O=C(O)CSc1nc(Cl)cc(Nc2cccc3c2CCCC3)n1 | Soluble | > 50 |  |  |  |
| CCCCC(Sc1nc(Cl)cc(Nc2cccc(C)c2C)n1)C(=O)O (stereo not given) |  | > 50 |  |  |  |
| Cc1cccc(Nc2cc(Cl)nc(SCC(=O)O)n2)c1C [PIRINIXIC ACID] |  | > 50 | 48.6 (≈ 150 µM) | 1.63 |  |

Now from value to molecule, other results behind:

| solubility [1] | remaining at 1 h, 10 µM [2] [%] | solubility at 24 h [1] [µg/mL] | logD [8] | SMILES | further results |
| --- | --- | --- | --- | --- | --- |
| Soluble | > 50 |  |  | CN(c1cc(C(F)(F)F)nc(OCCC(=O)O)n1)c1cccc2c1CCC2 | Drug uptake [3]: Active; Drug uptake [4]: Active; half-life [5]: 4.2 h; concentration at 2 h [6]: 275 ng/g; BPR [7]: 1.5% |
|  |  | 0.3 (≈ 0.861 µM) | 4.74 | C=C(c1ccc(C(=O)O)cc1)c1cc2c(cc1C)C(C)(C)CCC2(C)C [BEXAROTENE] |  |
